These results are taken from publication PMC11032351, “Epigenetic modulation through BET bromodomain inhibitors as a novel therapeutic strategy for progranulin-deficient frontotemporal dementia” (Scientific Reports, 2024).

Each structure is given as a SMILES string.

In this assay the target is T1, Endogenous BRD4 (NPC) (Homo sapiens, UniProt O60885).
T1 construct: target engagement toward endogenous BRD4 derived from cellular lysates of cell types of interest; endogenous in cells; host or cells: 8330-8 human iPSC-derived neural progenitor cells
Kind of assay: CoraFluor TR-FRET ligand displacement, endogenous BRD4 in NPC lysate. Conditions: with 95% confidence interval, read-out: Endogenous BRD4 (NPC), KD,app. Format: binding. As to the method:
A cell pellet from one 15 cm dish (~ 25 M cells) of HEK293T cells, or from one confluent T-75 flask 8330-8 NPC cells (~ 9 M cells), was allowed to thaw on ice and cells were suspended in 400 μL lysis buffer (25 mM HEPES, 150 mM NaCl, 0.2% (v/v) Triton X-100, 0.02% (v/v) TWEEN-20, pH 7.5 supplemented with 2 mM DTT and one Roche cOmplete, Mini, EDTA-free protease inhibitor cocktail tablet (Sigma 11,836,170,001) per 7 mL. Cells were homogenized via passage through a 27.5-gauge needle 5 times, and the resulting mixture was incubated with slow, end-over-end mixing at 4 °C for 15 min. The lysate was clarified via centrifugation at 16,100 × g for 10 min at 4 °C then 800 μL (1:3 dilution) dilution buffer (25 mM HEPES, 150 mM NaCl, 0.005% (v/v) TWEEN-20, pH 7.5) was added and the lysate was re-clarified at 16,100 × g for 10 min at 4 °C. Total protein was quantified via detergent-compatible Bradford assay (ThermoFisher 23,246). The lysate was used fresh or flash-frozen in liquid nitrogen and stored at − 80 °C in single-use aliquots.
Unless otherwise noted, experiments were performed in white, 384-well microtiter plates (Corning 3572 or PerkinElmer ProxiPlate-384 Plus) in 30 μL or 10 μL assay volume, respectively. TR-FRET measurements were acquired on a Tecan SPARK plate reader with SPARKCONTROL software version V2.1 (Tecan Group Ltd.), with the following settings: 340/50 nm excitation, 490/10 nm (Tb), 520/10 nm (FITC) emission, 100 μs delay, and 400 μs integration. The 490/10 and 520/10 nm emission channels were acquired with a 50% mirror and a dichroic 510 mirror, respectively, using independently optimized detector gain settings unless specified otherwise. The TR-FRET ratio was taken as the 520/490 nm intensity ratio on a per-well basis.
For the profiling of endogenous BRD4, cell lysates as prepared above were diluted to 0.8 mg/mL total protein in 1:3 lysis buffer:dilution buffer with 0.5 nM rabbit anti-BRD4 antibody (Cell Signaling Technology; E2A7X) and 1 nM CoraFluor-1-labeled anti-rabbit Nano-Secondary (ChromoTek CTK0101). JQ1-FITC was added in serial dilution (cmax = 200 nM) using an HP D300 digital dispenser and allowed to equilibrate for 2 h at room temperature before TR-FRET measurements were taken. Nonspecific signal was determined with 50 μM JQ1-Acid, and data were fitted to a One Site–Specific Binding model in Prism 9. The KD,app determined from the one-site model was then adjusted for a two-site model using Eq. 1.
The following assay parameters have been used: (i) 4 nM GST-BRD4(BD1), 4 nM CoraFluor-labeled GST VHH, 20 nM JQ1-FITC in assay buffer, (ii) 4 nM GST-BRD4(BD2), 4 nM CoraFluor-labeled GST VHH, 20 nM JQ1-FITC in assay buffer, (iii) HEK293T or NPC cell lysate at 0.8 mg/mL total protein, 1 nM rabbit anti-BRD4 antibody, 2 nM CoraFluor-labeled anti-rabbit Nano-Secondary, 20 nM JQ1-FITC. For all experiments, test compounds were added in serial dilution (cmax = 10 μM) using an HP D300 digital dispenser and allowed to equilibrate for 2 h at room temperature before TR-FRET measurements were taken. The assay floor (background) was defined with the 10 μM mivebresib dose, and the assay ceiling (top) was defined via a no-inhibitor control. Data were fitted to a four-parameter dose–response model in Prism 9.
For TR-FRET ligand displacement assays with recombinant bromodomains, we have determined the KD of the respective fluorescent tracer (JQ1-FITC) under each assay condition. For endogenous BRD4 in whole cell extract, we have determined the KD,app of JQ1-FITC under each assay condition. Inhibitor KD and KD,app values have been calculated using Cheng-Prusoff principles, outlined in Eq. 2 below:2 KDorKD,app=IC50/1+[S]/KX where IC50 is the measured IC50 value, [S] is the concentration of fluorescent tracer, and KX is the KD or KD,app of the fluorescent tracer for a given condition.
Take `Cn1ccc2c(-c3cccnc3Oc3cc(F)cc(F)c3)c[nH]c2c1=O` [Compound 82B, 3-(2-(3,5-difluorophenoxy)pyridin-3-yl)-6-methyl-1,6-dihydro-7H-pyrrolo[2,3-c]pyridin-7-one]: the Kd was 430 nM.
Under `Cn1cc(-c2cccnc2Oc2ccc(F)cc2)c2cc[nH]c2c1=O` [Compound 18A, 4-(2-(4-fluorophenoxy)pyridin-3-yl)-6-methyl-1H-pyrrolo[2,3-c]pyridin-7(6H)-one] stands 46 nM; under `Cn1cc(-c2cccnc2Nc2ccc(F)cc2)c2cc[nH]c2c1=O` [Compound 85A, 4-(2-((4-fluorophenyl)amino)pyridin-3-yl)-6-methyl-1,6-dihydro-7H-pyrrolo[2,3-c]pyridin-7-one], 100 nM; under `Cn1cc(-c2cccnc2Oc2cc(F)cc(F)c2)c2cc[nH]c2c1=O` [Compound 82A, 4-(2-(3,5-difluorophenoxy)pyridin-3-yl)-6-methyl-1,6-dihydro-7H-pyrrolo[2,3-c]pyridin-7-one], 45 nM.
The same measure for `Cn1ccc2c(-c3cccnc3Nc3ccc(F)cc3)c[nH]c2c1=O` [Compound 85B, 3-(2-((4-fluorophenyl)amino)pyridin-3-yl)-6-methyl-1,6-dihydro-7H-pyrrolo[2,3-c]pyridin-7-one]: 3810 nM.
For the compound `Cn1cc(-c2cc(F)cnc2Oc2ccc(F)cc2)c2cc[nH]c2c1=O` [Compound 86A, 4-(5-fluoro-2-(4-fluorophenoxy)pyridin-3-yl)-6-methyl-1,6-dihydro-7H-pyrrolo[2,3-c]pyridin-7-one], the Kd amounted to 559 nM.
`Cn1ccc2c(-c3cccnc3Oc3ccc(F)cc3)c[nH]c2c1=O` [Compound 18B, 3-[2-(4-fluorophenoxy)pyridin-3-yl]-6-methyl-1,6-dihydro-7H-pyrrolo[2,3-c]pyridin-7-one]: the Kd is 131 nM.
The same measure for `Cn1ccc2c(-c3cccnc3Sc3ccc(F)cc3)c[nH]c2c1=O` [Compound 84B, 3-(2-((4-fluorophenyl)thio)pyridin-3-yl)-6-methyl-1,6-dihydro-7H-pyrrolo[2,3-c]pyridin-7-one]: 195 nM; for `Cn1cc(-c2cccnc2Oc2ccc(F)c(F)c2)c2cc[nH]c2c1=O` [Compound 81A, 4-(2-(3,4-difluorophenoxy)pyridin-3-yl)-6-methyl-1,6-dihydro-7H-pyrrolo[2,3-c]pyridin-7-one]: 32 nM; for `Cn1cc(-c2cccnc2Sc2ccc(F)cc2)c2cc[nH]c2c1=O` [Compound 84A, 4-(2-((4-fluorophenyl)thio)pyridin-3-yl)-6-methyl-1,6-dihydro-7H-pyrrolo[2,3-c]pyridin-7-one]: 378 nM.
`Cn1ccc2c(-c3cc(F)cnc3Oc3ccc(F)cc3)c[nH]c2c1=O` [Compound 86B, 3-(5-fluoro-2-(4-fluorophenoxy)pyridin-3-yl)-6-methyl-1,6-dihydro-7H-pyrrolo[2,3-c]pyridin-7-one]: the Kd stood at 5900 nM.
The same measure for `Cn1ccc2c(-c3cccnc3Oc3ccc(F)c(F)c3)c[nH]c2c1=O` [Compound 81B, 3-(2-(3,4-difluorophenoxy)pyridin-3-yl)-6-methyl-1,6-dihydro-7H-pyrrolo[2,3-c]pyridin-7-one]: 532 nM.
